Experimental findings from patent US5922891A, “2-substituted 1,8-dihydroxy-9(10H)-anthracenone pharmaceuticals” (priority 1997, dated 1999) are described below.

Data set [1] is described as follows: Deoxyribose degradation as a measure of hydroxyl radical formation. It counts as biochemical. The following applies: 75 μM test compound; controls < 0.1.
A short description of data set [2]: Inhibition of AAPH-induced lipid peroxidation in bovine brain phospholipid liposomes. The settings on record: AAPH-induced; bovine brain phospholipid liposomes; N = 3 or more; read-out: LPO IC50 (inhibition of lipid peroxidation). It counts as biochemical. As to the method: Phospholipids were prepared essentially as described by Gutteridge, J. M. C., (Anal. Biochem., 82: 76-82 (1977)). Bovine brain tissue was cooled on ice, freed from blood vessels and washed repeatedly with 0.15 M NaCl, pH 7.4. The tissue was cut into pieces and then macerated with an ultra-turrax, passed through a fine-meshed sieve, and extracted four times with four times the volume of acetone. The extraction mixture was filtered by suction to remove the acetone, the residue dried under vacuum, and then repeatedly extracted with petroleum ether (40-60) using twice the volume of the original brain homogenate. The combined extracts were filtered, dried at 45° C., and dissolved in ether (one fifth the original brain volume). The mixture was treated with five times the volume of acetone, and the resulting precipitate was collected by suction-filtration, dried and stored under N2 at -20° C. in the dark. Bovine brain phospholipids were weighed into glass tubes and shaken in a vortex mixer (Heidolph) in the presence of five small glass beads (.phi. 4 mm) for 1 minute. The phospholipids were suspended in 0.15 M NaCl, pH 7.4, to a final concentration of 5 mg/ml. The mixture was purged with N2 for 1 minute and vigorously dispersed in a vortex mixer for 5 minutes. The liposomes were allowed to swell for 1 hour at 4° C., and vesicles with a mean size of 1-10 μm were obtained according to the method of Bangham, et al., (J. Mol. Biol., 13:238-252 (1965). The liposomes were stimulated with the azo initiator 2 2'-azobis (2-amidinopropane) hydrochloride according to the method of Gutteridge, J. M. C., (Anal. Biochem. 82:76-82 (1977)).
The following reagents were added to the glass tubes containing stimulating bovine brain phospholipid piposomes in the order and at the final concentrations listed: 0.3 ml HK2 PO4 --KOH buffer, pH 7.4 (30 mM), 0.29 ml double distilled H2 O, 0.2 ml liposomes (1 mg/ml), 0.2 ml FeCl3.H2 O (0.1 mM), 0.01 ml 2-substituted anthracenone compound of the invention (variable concentrations).
Appropriate blanks and controls using the vehicle (acetone) were conducted. The final reaction volumes were standardized to 1.0 ml. The reaction mixtures were incubated for 1 hour at 37° C. in a shaking water bath. […] of 20% (w/v) BHT, 0.5 ml 25% (w/v) HCl and 0.5 ml of 1% 2-thiobarbituric acid were added and the samples were heated at 100° C. for 15 minutes and then cooled in an ice bath (5 minutes). 2 ml of 1-butanol were added and the mixtures were vigorously shaken in a vortex mixer (Heidolph) for 15 seconds. The organic layer was separated by centrifugation at 3000 rpm (15 minutes) and absorbance at 532 nm was measured against butanol.

The term IC50 denotes the midpoint of a concentration-inhibition curve. Regarding `COC(=O)CCCCc1ccc2c(c1O)C(=O)c1c(O)cccc1C2` [IVB, Methyl 5-(9,10-Dihydro-1,8-dihydroxy-9-oxo-2-anthracene)pentanoate], in data set [1], the “DD (deoxyribose degradation, malondialdehyde released)” value is on record as 0.62 ± 0.03 μmol of MDA/mmol. Besides, the IC50 in data set [2] is 62 µM.
On the same counts, the results for `COC(=O)CCCCCc1ccc2c(c1O)C(=O)c1c(O)cccc1C2` [VB, Methyl 6-(9,10-Dihydro-1,8-dihydroxy-9-oxo-2-anthracene) hexaonate] are 0.13 ± 0.02 μmol of MDA/mmol and 120 µM.
On the same counts, the results for `CC(C(=O)N(C)O)c1ccc2c(c1O)C(=O)c1c(O)cccc1C2` (centres unmarked) [VIID, N-Hydroxy-N-methyl-2-(9,10-dihydro-1,8-dihydroxy-9-oxo-2-anthracene)propionamide] are 1.57 ± 0.16 μmol of MDA/mmol and 8 µM.
As for `COC(=O)C(c1ccc2c(c1O)C(=O)c1c(O)cccc1C2)C(C)C` (centres unmarked) [VIIIB, Methyl 2-(9,10-Dihydro-1,8-dihydroxy-9-oxo-2-anthracene)-3-methylbutanoate], the “DD (deoxyribose degradation, malondialdehyde released)” value in data set [1] is recorded as 0.54 ± 0.01 μmol of MDA/mmol. Also, the IC50 in data set [2] is 165 µM.
